Reference: paper doi:10.1101/2024.08.19.608619, “Discovery of potent SARS-CoV-2 nsp3 macrodomain inhibitors uncovers lack of translation to cellular antiviral response” (bioRxiv, 2024)
Read-outs that look alike come from different tables or passages of the source.

Legend:
LogD = details: pH 7.4
SARS-CoV-2 nsp3-mac1 [1] = target: T1, SARS-CoV-2 nsp3-mac1 (Severe acute respiratory syndrome coronavirus 2, UniProt P0DTD1); assay: biochemical; assay type: biochemical; details: SARS-CoV-2 nsp3 macrodomain TR-FRET single point
SARS-CoV-2 nsp3-mac1 [2] = target: T1, SARS-CoV-2 nsp3-mac1; assay: biochemical; set-up: SARS-CoV-2 nsp3 macrodomain TR-FRET single point, per cent inhibition, n=2
[3] = read-out: perc_inhibition_mean, batch_name=ASAP-0000461-001
[4] = read-out: perc_inhibition_mean, batch_name=ASAP-0000462-001
[5] = read-out: perc_inhibition_mean, batch_name=ASAP-0000463-001
[6] = read-out: perc_inhibition_mean, batch_name=ASAP-0000464-001
[7] = read-out: perc_inhibition_mean, batch_name=ASAP-0000465-001
[8] = read-out: perc_inhibition_mean, batch_name=ASAP-0000466-001
[9] = read-out: perc_inhibition_mean, batch_name=ASAP-0000467-001
[10] = read-out: perc_inhibition_mean, batch_name=ASAP-0000468-001
[11] = read-out: perc_inhibition_mean, batch_name=ASAP-0000469-001
[12] = read-out: perc_inhibition_mean, batch_name=ASAP-0000470-001
[13] = read-out: perc_inhibition_mean, batch_name=ASAP-0000471-001
[14] = read-out: perc_inhibition_mean, batch_name=ASAP-0000472-001
[15] = read-out: perc_inhibition_mean, batch_name=ASAP-0000473-001
[16] = read-out: perc_inhibition_mean, batch_name=ASAP-0000474-001
[17] = read-out: perc_inhibition_mean, batch_name=ASAP-0000475-001
[18] = read-out: perc_inhibition_mean, batch_name=ASAP-0000476-001
[19] = read-out: perc_inhibition_mean, batch_name=ASAP-0000477-001
[20] = read-out: perc_inhibition_mean, batch_name=ASAP-0000478-001
[21] = read-out: perc_inhibition_mean, batch_name=ASAP-0000479-001
[22] = read-out: perc_inhibition_mean, batch_name=ASAP-0000480-001
[23] = read-out: perc_inhibition_mean, batch_name=ASAP-0000481-001
[24] = read-out: perc_inhibition_mean, batch_name=ASAP-0000482-001

## O=C(O)C[C@H](NC(=O)c1ncnc2[nH]ccc12)c1ccc(Br)cc1 [ASAP-0000136]
LogD; In vitro LogD
  logd: 0.22

## O=C(N[C@@H](C(=O)O)[C@@H](O)Cc1ccccc1)c1ncnc2[nH]ccc12 [ASAP-0000461]
SARS-CoV-2 nsp3-mac1 [1]; concentration 49.75 uM
  perc_inhibition_mean: 3.789%
SARS-CoV-2 nsp3-mac1 [1]; concentration 99.5 uM
  perc_inhibition_mean: 12.267%
SARS-CoV-2 nsp3-mac1 [2]; [3]
  inhibition at 49.75 µM: 3.79%
  inhibition at 99.5 µM: 12.3%

## CC(C)[C@@H](Nc1ncnc2[nH]ccc12)C(N)=O [ASAP-0000462]
SARS-CoV-2 nsp3-mac1 [1]; concentration 49.75 uM
  perc_inhibition_mean: 64.403%
SARS-CoV-2 nsp3-mac1 [1]; concentration 99.5 uM
  perc_inhibition_mean: 77.698%
SARS-CoV-2 nsp3-mac1 [2]; [4]
  inhibition at 49.75 µM: 64.4%
  inhibition at 99.5 µM: 77.7%

## Cn1cc([C@@H](Nc2ncnc3[nH]ccc23)C2CCC2)cn1 [ASAP-0000463]
SARS-CoV-2 nsp3-mac1 [1]; concentration 49.75 uM
  perc_inhibition_mean: 78.069%
SARS-CoV-2 nsp3-mac1 [1]; concentration 99.5 uM
  perc_inhibition_mean: 91.032%
SARS-CoV-2 nsp3-mac1 [2]; [5]
  inhibition at 49.75 µM: 78.1%
  inhibition at 99.5 µM: 91%

## C[C@@H](Cc1ccc(Cl)s1)Nc1ccc([C@@H](CC(=O)O)NC(=O)c2c[nH]c3ncncc23)cc1 [ASAP-0000464]
SARS-CoV-2 nsp3-mac1 [1]; concentration 49.75 uM
  perc_inhibition_mean: -1.543%
SARS-CoV-2 nsp3-mac1 [1]; concentration 99.5 uM
  perc_inhibition_mean: 1.952%
SARS-CoV-2 nsp3-mac1 [2]; [6]
  inhibition at 49.75 µM: -1.54%
  inhibition at 99.5 µM: 1.95%

## CC(C)[C@H]1CN(c2ncnc3[nH]ccc23)[C@H]1C(C)C [ASAP-0000465]
SARS-CoV-2 nsp3-mac1 [1]; concentration 49.75 uM
  perc_inhibition_mean: 0.348%
SARS-CoV-2 nsp3-mac1 [1]; concentration 99.5 uM
  perc_inhibition_mean: -2.201%
SARS-CoV-2 nsp3-mac1 [2]; [7]
  inhibition at 49.75 µM: 0.348%
  inhibition at 99.5 µM: -2.2%

## CC(C)[C@@H](CCN(C)C(=O)c1nn2cccnc2c1Cl)Nc1ncnc2[nH]ccc12 [ASAP-0000466]
SARS-CoV-2 nsp3-mac1 [1]; concentration 49.75 uM
  perc_inhibition_mean: 0.844%
SARS-CoV-2 nsp3-mac1 [1]; concentration 99.5 uM
  perc_inhibition_mean: 1.645%
SARS-CoV-2 nsp3-mac1 [2]; [8]
  inhibition at 49.75 µM: 0.844%
  inhibition at 99.5 µM: 1.65%

## COc1ccccc1C[C@@H](Nc1ncnc2[nH]ccc12)C(C)C [ASAP-0000467]
SARS-CoV-2 nsp3-mac1 [1]; concentration 49.75 uM
  perc_inhibition_mean: 31.716%
SARS-CoV-2 nsp3-mac1 [1]; concentration 99.5 uM
  perc_inhibition_mean: 48.499%
SARS-CoV-2 nsp3-mac1 [2]; [9]
  inhibition at 49.75 µM: 31.7%
  inhibition at 99.5 µM: 48.5%

## Cc1nn(-c2ccccc2)c(C)c1[C@H]1COCCN1c1ncnc2[nH]ccc12 [ASAP-0000468]
SARS-CoV-2 nsp3-mac1 [1]; concentration 49.75 uM
  perc_inhibition_mean: -0.042%
SARS-CoV-2 nsp3-mac1 [1]; concentration 99.5 uM
  perc_inhibition_mean: -4.216%
SARS-CoV-2 nsp3-mac1 [2]; [10]
  inhibition at 49.75 µM: -0.042%
  inhibition at 99.5 µM: -4.22%

## O=C(N[C@H](Cn1cnc2cc(F)c(F)cc21)C(=O)O)c1ncnc2[nH]ccc12 [ASAP-0000469]
SARS-CoV-2 nsp3-mac1 [1]; concentration 49.75 uM
  perc_inhibition_mean: -2.035%
SARS-CoV-2 nsp3-mac1 [1]; concentration 99.5 uM
  perc_inhibition_mean: 8.395%
SARS-CoV-2 nsp3-mac1 [2]; [11]
  inhibition at 49.75 µM: -2.04%
  inhibition at 99.5 µM: 8.39%

## C[C@@H](Nc1ncnc2[nH]ccc12)c1cnn(Cc2ccccc2)c1 [ASAP-0000470]
SARS-CoV-2 nsp3-mac1 [1]; concentration 49.75 uM
  perc_inhibition_mean: -4.105%
SARS-CoV-2 nsp3-mac1 [1]; concentration 99.5 uM
  perc_inhibition_mean: 3.18%
SARS-CoV-2 nsp3-mac1 [2]; [12]
  inhibition at 49.75 µM: -4.11%
  inhibition at 99.5 µM: 3.18%

## CC(C)[C@@H](Nc1ncnc2[nH]ccc12)c1nc2ccccc2[nH]1 [ASAP-0000471]
SARS-CoV-2 nsp3-mac1 [1]; concentration 49.75 uM
  perc_inhibition_mean: 37.305%
SARS-CoV-2 nsp3-mac1 [1]; concentration 99.5 uM
  perc_inhibition_mean: 52.508%
SARS-CoV-2 nsp3-mac1 [2]; [13]
  inhibition at 49.75 µM: 37.3%
  inhibition at 99.5 µM: 52.5%

## c1nc(N[C@@H]2CCCc3c2cnn3C2CCCC2)c2cc[nH]c2n1 [ASAP-0000472]
SARS-CoV-2 nsp3-mac1 [1]; concentration 49.75 uM
  perc_inhibition_mean: 0.884%
SARS-CoV-2 nsp3-mac1 [1]; concentration 99.5 uM
  perc_inhibition_mean: 14.273%
SARS-CoV-2 nsp3-mac1 [2]; [14]
  inhibition at 49.75 µM: 0.884%
  inhibition at 99.5 µM: 14.3%

## C[C@@H](Nc1ncnc2[nH]ccc12)c1cnn(CC2CCC2)c1 [ASAP-0000473]
SARS-CoV-2 nsp3-mac1 [1]; concentration 49.75 uM
  perc_inhibition_mean: -0.451%
SARS-CoV-2 nsp3-mac1 [1]; concentration 99.5 uM
  perc_inhibition_mean: 4.9%
SARS-CoV-2 nsp3-mac1 [2]; [15]
  inhibition at 49.75 µM: -0.451%
  inhibition at 99.5 µM: 4.9%

## Cn1cc([C@H]2CCCCN2c2ncnc3[nH]ccc23)cn1 [ASAP-0000474]
SARS-CoV-2 nsp3-mac1 [1]; concentration 49.75 uM
  perc_inhibition_mean: 6.392%
SARS-CoV-2 nsp3-mac1 [1]; concentration 99.5 uM
  perc_inhibition_mean: 8.316%
SARS-CoV-2 nsp3-mac1 [2]; [16]
  inhibition at 49.75 µM: 6.39%
  inhibition at 99.5 µM: 8.32%

## CC(C)[C@@H](CCN(C)C(=O)c1cc2c(s1)CC[C@H](C)C2)Nc1ncnc2[nH]ccc12 [ASAP-0000475]
SARS-CoV-2 nsp3-mac1 [1]; concentration 49.75 uM
  perc_inhibition_mean: -9.684%
SARS-CoV-2 nsp3-mac1 [1]; concentration 99.5 uM
  perc_inhibition_mean: -29.716%
SARS-CoV-2 nsp3-mac1 [2]; [17]
  inhibition at 49.75 µM: -9.68%
  inhibition at 99.5 µM: -29.7%

## Cc1c([C@@H](C)Nc2ncnc3[nH]ccc23)cnn1-c1ccccc1 [ASAP-0000476]
SARS-CoV-2 nsp3-mac1 [1]; concentration 49.75 uM
  perc_inhibition_mean: 28.129%
SARS-CoV-2 nsp3-mac1 [1]; concentration 99.5 uM
  perc_inhibition_mean: 41.664%
SARS-CoV-2 nsp3-mac1 [2]; [18]
  inhibition at 49.75 µM: 28.1%
  inhibition at 99.5 µM: 41.7%

## CC(C)[C@H]1N(c2ncnc3[nH]ccc23)CC12CCOCC2 [ASAP-0000477]
SARS-CoV-2 nsp3-mac1 [1]; concentration 49.75 uM
  perc_inhibition_mean: 27.65%
SARS-CoV-2 nsp3-mac1 [1]; concentration 99.5 uM
  perc_inhibition_mean: 47.993%
SARS-CoV-2 nsp3-mac1 [2]; [19]
  inhibition at 49.75 µM: 27.6%
  inhibition at 99.5 µM: 48%

## CC(C)Cn1cc([C@H]2N(c3ncnc4[nH]ccc34)CC23CCOCC3)cn1 [ASAP-0000478]
SARS-CoV-2 nsp3-mac1 [1]; concentration 49.75 uM
  perc_inhibition_mean: -0.591%
SARS-CoV-2 nsp3-mac1 [1]; concentration 99.5 uM
  perc_inhibition_mean: -4.664%
SARS-CoV-2 nsp3-mac1 [2]; [20]
  inhibition at 49.75 µM: -0.591%
  inhibition at 99.5 µM: -4.66%

## CC(C)[C@@H]1C(=O)NCCN1c1ncnc2[nH]ccc12 [ASAP-0000479]
SARS-CoV-2 nsp3-mac1 [1]; concentration 49.75 uM
  perc_inhibition_mean: 61.35%
SARS-CoV-2 nsp3-mac1 [1]; concentration 99.5 uM
  perc_inhibition_mean: 80.665%
SARS-CoV-2 nsp3-mac1 [2]; [21]
  inhibition at 49.75 µM: 61.4%
  inhibition at 99.5 µM: 80.7%

## CC(C)[C@@H](CO)[C@@H](Nc1ncnc2[nH]ccc12)C(C)C [ASAP-0000480]
SARS-CoV-2 nsp3-mac1 [1]; concentration 49.75 uM
  perc_inhibition_mean: 6.651%
SARS-CoV-2 nsp3-mac1 [1]; concentration 99.5 uM
  perc_inhibition_mean: 13.057%
SARS-CoV-2 nsp3-mac1 [2]; [22]
  inhibition at 49.75 µM: 6.65%
  inhibition at 99.5 µM: 13.1%

## CC(C)[C@@H](CCN(C)C(=O)C1CCc2ccccc2CC1)Nc1ncnc2[nH]ccc12 [ASAP-0000481]
SARS-CoV-2 nsp3-mac1 [1]; concentration 49.75 uM
  perc_inhibition_mean: -5.62%
SARS-CoV-2 nsp3-mac1 [1]; concentration 99.5 uM
  perc_inhibition_mean: -10.916%
SARS-CoV-2 nsp3-mac1 [2]; [23]
  inhibition at 49.75 µM: -5.62%
  inhibition at 99.5 µM: -10.9%

## CC(C)[C@@H](Nc1ncnc2[nH]ccc12)C(=O)N(C)Cc1nnc2n1CCC2 [ASAP-0000482]
SARS-CoV-2 nsp3-mac1 [1]; concentration 49.75 uM
  perc_inhibition_mean: -8.89%
SARS-CoV-2 nsp3-mac1 [1]; concentration 99.5 uM
  perc_inhibition_mean: -6.138%
SARS-CoV-2 nsp3-mac1 [2]; [24]
  inhibition at 49.75 µM: -8.89%
  inhibition at 99.5 µM: -6.14%

## CC(C)C(Nc1ncnc2[nH]ccc12)c1ccc2c(n1)OCCO2 (stereo not shown) [ASAP-0008270]
LogD
  logd: 2.8

## CC(C)[C@@H](Nc1ncnc2[nH]ccc12)c1ccc2c(c1)OCCO2 [ASAP-0008279]
LogD; In vitro LogD
  logd: 3.0
